Experiment in all cases: DTP human tumour cell line panel, 48 h
Experiment [1] concerns DMS 273 small cell lung.
The test system of experiment [2] is KM20L2 colon.
The subject of experiment [3] is SNB-78 CNS.
Experiment [4] deals with LXFL 529 NSCLC.
The test system of experiment [5] is M19-MEL melanoma.
Experiment [6] concerns MCF7 breast.
The subject of experiment [7] is NCI/ADR-RES ovarian.
Experiment [8] relates to PC-3 prostate.
Experiment [9] concerns BT-549 breast.
Experiment [10] relates to HS 578T breast.

Values joined by “and” are separate entries in the source; they are usually repeats but may differ in a detail not shown here. Equal entries are not always repeated.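 Following 48 hours of exposure in 96-well plates, responses at five concentrations were used to interpolate endpoints linearly. GI50 = concentration required for 50% inhibition of growth. TGI is the concentration that stops growth completely.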

As to `Cc1c(C(=O)CSc2nc3ccccc3[nH]2)c(=O)n(-c2ccccc2)n1C`, the TGI in experiment [1], in experiment [2], in [3], in [4] and in [5] was more than 100 µM each time.

`CNC(=O)CN(CC(N)=O)C(N)=O`: the total growth inhibition concentration (TGI) in [1], in experiment [2], in [3], in experiment [4] and in [5] was more than 100 µM each time.

Take `CC1=NN(C(=O)c2ccccc2O)C(=O)/C1=C/c1cccc([N+](=O)[O-])c1`: the TGI (commonly the concentration giving total growth inhibition) in experiment [2] was 63.6 µM; in experiment [3], more than 100 µM; in experiment [4] it was more than 100 µM; in experiment [6] it was more than 100 µM; in experiment [7] it was more than 100 µM; in [8], more than 100 µM.

In the case of `CC1CC[C@]2(C(=O)O)CCC3(C)C(=CCC4[C@@]5(C)CC[C@H](OS(=O)(=O)c6ccccc6)C(C)(C)C5CC[C@]43C)[C@@H]2[C@H]1C` (some centres not stated), the TGI in [1], in experiment [3], in experiment [4] and in [5] was more than 100 µM in each case.

As to `COc1ccc(OC)c2c3c(ccc12)C(c1ccccc1)OC3=O` (configuration not stated), the TGI in experiment [1] is more than 100 µM; in [2], more than 100 µM; in experiment [3] it was 64.9 µM; in experiment [4], more than 100 µM; in experiment [5], more than 100 µM.

Regarding `COC(OC)c1cc2c(cc1C(=O)[C@@]13CCC[C@@H]1NC(=O)O3)OCO2`, the TGI in experiment [1], in experiment [3] and in experiment [5] was more than 100 µM each time.

With `COc1nc(NC2OC(COC(C)=O)C(OC(C)=O)C(OC(C)=O)C2OC(C)=O)c(-c2csc(N)n2)c(=O)n1C` (configuration not stated), the TGI in experiment [2], in [3], in experiment [4] and in [5] was more than 100 µM each time.

In the case of `C=[CH][Sn]([CH]=C)([O]c1cccc2cccnc12)[O]c1cccc2cccnc12`, the GI50 – broadly, the concentration at which growth is held to half of that of the control – in experiment [9] is 2.78 µM; in [2], 2.26 µM; in experiment [6], 3.11 µM; in [7], 9.94 µM; in [8], 3.85 µM. Further, the TGI in experiment [9] is 31.5 µM; in experiment [2], 4.99 µM; in [6], 12.6 µM; in experiment [7] it was more than 100 µM; in experiment [8], 29.7 µM.

As to `CCOc1ccc(C(CN2CCOCC2)C(C)=O)cc1OC` (configuration not stated), the TGI in experiment [1] is 23.3 µM; in experiment [2] it was 35 µM; in experiment [3], 66.8 µM; in experiment [4], 17 µM; in experiment [5] it was 34.1 µM.

For the compound `Cc1nc(-n2nc(-c3ccccc3)cc2-c2ccccc2)sc1C(/C=C/c1ccc([N+](=O)[O-])cc1)=N/NC(=O)c1ccncc1`, the TGI is more than 100 µM in [2], 61 µM in experiment [3], 43.2 µM in experiment [4] and 92.6 µM in experiment [5].

Take `O=C1C=CC2(C=C1)C[C@H](NC(=O)C(F)(F)F)C(=O)O2`: the TGI in [2] was more than 100 µM; in [3] it was more than 100 µM; in [4], 69.1 µM; in experiment [5], 63.8 µM.

Consider `C[N+](C)(C)CC1CCCC(C[N+](C)(C)C)C1O` (configuration not stated), for which the TGI in [1], in [2], in experiment [3], in experiment [4] and in [5] was more than 100 µM throughout.

In the case of `CC(=O)C1C(=O)N(C(C)C)C[C@@H]2CCC(=O)C[C@H]12` (some centres not stated), the TGI in experiment [1], in experiment [3], in [4] and in experiment [5] was more than 100 µM each time.

In the case of `Cc1cc(Cl)cc2c1NC(=O)C2=O` (tested in a mixture with another compound), the total growth inhibition concentration (TGI) was more than 100 µM in experiment [1]; more than 100 µM in [2]; 91.1 µM in experiment [3]; more than 100 µM in experiment [4]; 28.8 µM in experiment [5].

As to `CCC1CNC(=O)CC1CC(=O)OC` (configuration not stated), the TGI in [2] and in experiment [3] was more than 100 µM in each case.

Turning to `Cc1ccc(NC(=O)CC(=O)N2N=C(N(CCC#N)c3cccc(C)c3)CC2c2ccccc2)cc1` (configuration not stated), the TGI in experiment [1], in [2], in experiment [3], in experiment [4] and in [5] was more than 100 µM in each case.

Take `COc1cc2c(c(OC)c1OC)-c1ccc(SC)c(=O)cc1[C@@H](NC(=O)c1ccc(Cl)cc1)CC2`: the TGI was more than 100 µM in [1], less than 0.01 µM in experiment [2], 0.169 µM in [4] and more than 100 µM in experiment [5].

Regarding `S=c1nc(-c2ccnc(-c3nc(=S)[nH][nH]3)c2)[nH][nH]1`, the TGI in [1], in experiment [2], in experiment [3], in experiment [4] and in experiment [5] was more than 100 µM throughout.

In the case of `COC(=O)/C(=N/NC(N)=O)C(C(=O)OC)C(=O)C(=O)Nc1ccc(Cl)cc1` (configuration not stated), the TGI in experiment [1], in [2], in experiment [4] and in [5] was more than 100 µM in each case.

With `CCCCCCCCCCCCOP(N)(=O)OCCCCCCCCCCCC`, the TGI in experiment [1], in experiment [3], in [4] and in experiment [5] was more than 100 µM in each case.

For the compound `C[C@@H]1C[C@]2(C[C@@H](C)C3[C@@H](CC4(C)[C@@H]5CCC6C(C)(C)OC(=O)C=C[C@]67C[C@@]5(CC[C@]34C)OO7)O2)OC1=O` (some centres not stated), the TGI in experiment [1], in [3] and in experiment [4] was more than 100 µM each time.

With `COC(=O)CC(C(C(C)=O)C(=O)OCc1ccccc1)N1C(=O)OCC1c1ccccc1` (configuration not stated), the TGI in [1], in [2], in [4] and in [5] was more than 100 µM each time.

With `Nc1ccc(S(=O)(=O)Nc2cnc3c(Cl)cccc3n2)cc1`, the GI50 was 220 µM in [9], 16.3 µM in experiment [10], 45.3 µM in [6] and more than 63.9 µM in experiment [8]. The TGI is more than 750 µM in [9]; 467 µM in [1]; more than 750 µM in [2]; 528 µM in [3]; > 79.5 µM and 504 µM in experiment [10]; more than 721 µM in experiment [6]. In addition, the TGI in experiment [5] is more than 625 µM; in experiment [7], 629 µM; in [8], more than 750 µM.

In the case of `CC(C)C(=O)Oc1cc2c(=O)oc3c(OC(=O)C(C)C)c(OC(=O)C(C)C)cc4c(=O)oc(c1OC(=O)C(C)C)c2c34`, the TGI in experiment [9], in [10], in experiment [6], in [7] and in [8] was more than 100 µM throughout.

Turning to `O=C(Cc1csc2nc(-c3ccc(Br)cc3)cn12)N/N=C/c1ccc(O)cc1`, the GI50 in [9] is 13.4 µM; in experiment [10], 23.7 µM; in experiment [6] it was 62.7 µM; in experiment [7] it was 21.2 µM. The TGI in experiment [9] was 56.5 µM; in experiment [10], 92.3 µM; in [6], more than 100 µM; in experiment [7] it was 61.1 µM; in experiment [8], 23.7 µM.

Take `Cc1cc(Cl)ccc1Nc1nc(C(F)(F)F)ccc1C(=O)N1CCN(c2cccc(Cl)c2)CC1`: the GI50 in experiment [9] was more than 100 µM; in experiment [10], 3.89 µM; in experiment [6] it was 25.6 µM; in experiment [7], more than 100 µM; in experiment [8], 7.56 µM. Besides, the TGI in experiment [9], in experiment [10], in experiment [6], in experiment [7] and in experiment [8] was more than 100 µM throughout.

As for `CC1COCC(C)N1C1=C(Cl)C(=O)c2ccccc2C1=O` (configuration not stated), the GI50 in experiment [9] is 11.7 µM; in experiment [10] it was 6.38 µM; in experiment [6], 1.67 µM; in experiment [7], 3.36 µM; in [8], 3.92 µM. Besides, the TGI in [9] stood at 24 µM; in [10], 50.5 µM; in experiment [6], 3.76 µM; in experiment [7], 14.1 µM; in experiment [8], 17.8 µM.

Take `C[C@]12CC[C@H](OC3CCCCO3)CC1=CC[C@@H]1C2CC[C@]2(C)/C(=N/O)CCC12` (some centres not stated): the TGI in experiment [1] turned out to be 51.8 µM; in experiment [2] it was 30.5 µM; in experiment [3], 64.4 µM; in experiment [4], 45.6 µM.

On to `CO[C@@]12[C@@H]3NC3CN1C1=C(C(=O)C(N)=C(C)C1=O)[C@@H]2COC(N)=O` (some centres not stated), for which the GI50 in experiment [9] was 1.3 µM; in experiment [10], 6.32 µM; in [6] it was 0.0809 µM; in [7] it was 3.45 µM; in [8] it was 2.02 µM. The concentration for total growth inhibition (TGI) in experiment [9] was 6.74 µM; in [10], more than 100 µM; in [6], 7.55 µM; in experiment [7], more than 90.5 µM; in experiment [8], 37.1 µM.

Regarding `CCOC(=O)C(NC(=O)c1[nH]cnc1/N=N/N(C)C)C(C)C` (configuration not stated), the TGI in experiment [1], in [4] and in [5] was more than 100 µM throughout.

As for `CCOP(=O)(Nc1ccc2oc(=O)c3ccccc3c2c1)OCC`, the TGI in experiment [9], in [10], in [6], in experiment [7] and in experiment [8] was more than 100 µM in each case.

`Nc1ccc2c(c1)c(N)nn2C(=O)Nc1ccc(Cc2ccccc2)cc1`: the GI50 in [9] is 14.6 µM; in experiment [10] it was 17.3 µM; in experiment [6], 6.92 µM; in [7], 17.4 µM; in experiment [8], 4.33 µM. In addition, the TGI in experiment [9] came out at 33.5 µM; in experiment [10] it was 43 µM; in experiment [6], 26.5 µM; in experiment [7] it was 75.1 µM; in [8], 24 µM.

In the case of `COc1ccc(S(=O)(=O)N(C)CC(=O)O)cc1`, the TGI in experiment [1], in experiment [2], in [4] and in experiment [5] was more than 100 µM each time.

Regarding `Cc1ccc(C(C)C)cc1NC(=O)Nc1ccc([N+](=O)[O-])cc1`, the GI50 is 2.13 µM in experiment [9]; 1.66 µM in [10]; 1.95 µM in [6]; 2.61 µM in experiment [7]; 2.75 µM in experiment [8]. The TGI in experiment [9] was found to be 8.21 µM; in experiment [10], 5.18 µM; in experiment [6] it was 5.72 µM; in experiment [7] it was 7.7 µM; in experiment [8], 12.2 µM.

For `CC1(C)OC2C(COS(N)(=O)=O)SC(n3cnc4cncnc43)C2O1` (configuration not stated), the GI50 in experiment [9], in [10], in experiment [6], in experiment [7] and in experiment [8] was more than 100 µM each time. The TGI in experiment [9], in experiment [10], in experiment [6], in [7] and in experiment [8] was more than 100 µM each time.

For `COC(=O)/C(=N\NC(N)=S)C(C#N)c1ccccc1` (configuration not stated), the TGI in experiment [2], in experiment [3], in [4] and in [5] was more than 100 µM each time.

For `CSC1=NCC2(S1)c1ccccc1N(C(=O)OC(C)(C)C)C2N1CCCCC1` (configuration not stated), the GI50 is more than 100 µM in experiment [9]; 81.8 µM in experiment [10]; more than 100 µM in experiment [6]; more than 100 µM in [7]; 34.7 µM in experiment [8]. Further, the TGI in experiment [9], in [10], in experiment [6], in [7] and in experiment [8] was more than 100 µM throughout.

For `N#CC1C=Cc2ccccc2N1C(=O)Oc1ccccc1` (configuration not stated), the TGI in experiment [9], in experiment [10], in [6], in experiment [7] and in experiment [8] was more than 100 µM throughout.

Take `CC/C=C\C/C=C\C[C@H](O)C/C=C1/C(=O)C=C[C@@H]1C/C=C\CCCC(=O)OC`: the GI50 in [9] is 1.83 µM; in experiment [10] it was 6.59 µM; in experiment [6], 0.329 µM; in experiment [7] it was 1.78 µM; in experiment [8], 2.54 µM. Moreover, the TGI was determined as 4.01 µM in experiment [9]; 46.7 µM in experiment [10]; 5.2 µM in experiment [6]; 7.41 µM in [7]; 6.68 µM in [8].

Values taken from PubChem BioAssay (NCI).
